According to the supplement of paper PMC10307832:

Key:
Assay in all cases: relative viability (nuclei count vs DMSO), 5 days (fraction); higher = more cells survive
LU99A = system: LU99A
Summary of the method: (§1)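 Nuclei were stained with Hoechst during a one-step fixation (final 0.05% Triton X-100, 1% formaldehyde, 1 ug/ml Hoechst) carried out 5 days after dosing, then counted on 4× images. The cells, lung cancer lines in 1536-well plates, had been dosed by pin tool the day after seeding with one drug alone or a fixed anchor-drug dose plus five library-drug doses (not always all listed) in √10 steps. Relative viability is the nuclei count in treated wells divided by that in vehicle wells, and each value is the median of duplicate plates.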

NCI-H1395 = system: NCI-H1395
Summary of the method: as §1

HCC-15 = system: HCC-15
Summary of the method: as §1

NCI-H647 = system: NCI-H647
Summary of the method: as §1

NCI-H1944 = system: NCI-H1944
Summary of the method: as §1

CAL-12T = system: CAL-12T
Summary of the method: as §1

NCI-H1666 = system: NCI-H1666
Summary of the method: as §1

LC-2-ad = system: LC-2-ad
Summary of the method: as §1

PC-3 [JPC-3] = system: PC-3 [JPC-3]
Summary of the method: as §1

NCI-H1734 = system: NCI-H1734
Summary of the method: as §1

NCI-H1975 = system: NCI-H1975
Summary of the method: as §1

H3255 = system: H3255
Summary of the method: as §1

PC-14 = system: PC-14
Summary of the method: as §1

NCI-H1993 = system: NCI-H1993
Summary of the method: as §1

HCC-366 = system: HCC-366
Summary of the method: as §1

HARA = system: HARA
Summary of the method: as §1

NCI-H838 = system: NCI-H838
Summary of the method: as §1

NCI-H3122 = system: NCI-H3122
Summary of the method: as §1

SMILES: Cc1cnc(-c2cnc(NCCNc3ccc(C#N)cn3)nc2-c2ccc(Cl)cc2Cl)[nH]1 + NC(=O)Nc1cc(-c2cccc(F)c2)sc1C(=O)N[C@H]1CCCNC1 [AZD7762] (partner 0.2 µM)
- relative viability (LU99A; first compound 0.08 µM): 0.393
- relative viability (LU99A; first compound 0.253 µM): 0.368
- relative viability (LU99A; first compound 0.8 µM): 0.333
- relative viability (LU99A; first compound 2.53 µM): 0.389
- relative viability (NCI-H1395; first compound 0.08 µM): 0.425
- relative viability (NCI-H1395; first compound 0.253 µM): 0.43
- relative viability (NCI-H1395; first compound 0.8 µM): 0.4
- relative viability (NCI-H1395; first compound 2.53 µM): 0.374
- relative viability (HCC-15; first compound 0.08 µM): 1.17
- relative viability (HCC-15; first compound 0.253 µM): 0.968
- relative viability (HCC-15; first compound 0.8 µM): 1.2
- relative viability (HCC-15; first compound 2.53 µM): 1.13
- relative viability (NCI-H647; first compound 0.08 µM): 0.439
- relative viability (NCI-H647; first compound 0.253 µM): 0.341
- relative viability (NCI-H647; first compound 0.8 µM): 0.405
- relative viability (NCI-H647; first compound 2.53 µM): 0.364
- relative viability (NCI-H1944; first compound 0.08 µM): 0.668
- relative viability (NCI-H1944; first compound 0.8 µM): 0.488
- relative viability (NCI-H1944; first compound 2.53 µM): 0.521
- relative viability (CAL-12T; first compound 0.08 µM): 0.586
- relative viability (CAL-12T; first compound 0.253 µM): 0.567
- relative viability (CAL-12T; first compound 0.8 µM): 0.544
- relative viability (CAL-12T; first compound 2.53 µM): 0.693
- relative viability (NCI-H1666; first compound 0.08 µM): 0.852
- relative viability (NCI-H1666; first compound 0.253 µM): 0.864
- relative viability (NCI-H1666; first compound 0.8 µM): 0.838
- relative viability (NCI-H1666; first compound 2.53 µM): 0.78
- relative viability (LC-2-ad; first compound 0.08 µM): 0.851
- relative viability (LC-2-ad; first compound 0.8 µM): 0.687
- relative viability (LC-2-ad; first compound 2.53 µM): 0.841
- relative viability (PC-3 [JPC-3]; first compound 0.08 µM): 0.805
- relative viability (PC-3 [JPC-3]; first compound 0.253 µM): 0.761
- relative viability (PC-3 [JPC-3]; first compound 0.8 µM): 0.799
- relative viability (PC-3 [JPC-3]; first compound 2.53 µM): 0.725
- relative viability (NCI-H1734; first compound 0.08 µM): 0.513
- relative viability (NCI-H1734; first compound 0.253 µM): 0.522
- relative viability (NCI-H1734; first compound 0.8 µM): 0.543
- relative viability (NCI-H1734; first compound 2.53 µM): 0.459
- relative viability (NCI-H1975; first compound 0.08 µM): 0.818
- relative viability (NCI-H1975; first compound 0.253 µM): 0.583
- relative viability (NCI-H1975; first compound 0.8 µM): 0.575
- relative viability (NCI-H1975; first compound 2.53 µM): 0.506
- relative viability (H3255; first compound 0.08 µM): 0.996
- relative viability (H3255; first compound 0.253 µM): 0.887
- relative viability (H3255; first compound 0.8 µM): 0.879
- relative viability (H3255; first compound 2.53 µM): 0.888
- relative viability (PC-14; first compound 0.08 µM): 0.347
- relative viability (PC-14; first compound 0.253 µM): 0.316
- relative viability (PC-14; first compound 0.8 µM): 0.365
- relative viability (PC-14; first compound 2.53 µM): 0.392
- relative viability (NCI-H1993; first compound 0.08 µM): 0.918
- relative viability (NCI-H1993; first compound 0.253 µM): 0.683
- relative viability (NCI-H1993; first compound 0.8 µM): 0.703
- relative viability (NCI-H1993; first compound 2.53 µM): 0.9
- relative viability (HCC-366; first compound 0.08 µM): 0.284
- relative viability (HCC-366; first compound 0.253 µM): 0.202
- relative viability (HCC-366; first compound 0.8 µM): 0.197
- relative viability (HCC-366; first compound 2.53 µM): 0.0746
- relative viability (HARA; first compound 0.08 µM): 0.297
- relative viability (HARA; first compound 0.253 µM): 0.191
- relative viability (HARA; first compound 0.8 µM): 0.37
- relative viability (HARA; first compound 2.53 µM): 1
- relative viability (NCI-H838; first compound 0.08 µM): 0.973
- relative viability (NCI-H838; first compound 0.253 µM): 0.919
- relative viability (NCI-H838; first compound 0.8 µM): 0.941
- relative viability (NCI-H838; first compound 2.53 µM): 0.983
- relative viability (NCI-H3122; first compound 0.08 µM): 0.995
- relative viability (NCI-H3122; first compound 0.8 µM): 1.03
- relative viability (NCI-H3122; first compound 2.53 µM): 0.98

SMILES: O=c1[nH]c2ccccc2n1C1CCN(CCCC(c2ccc(F)cc2)c2ccc(F)cc2)CC1 [Pimozide] + NC(=O)Nc1cc(-c2cccc(F)c2)sc1C(=O)N[C@H]1CCCNC1 [AZD7762] (partner 0.2 µM)
- relative viability (LU99A; first compound 0.08 µM): 0.399
- relative viability (LU99A; first compound 0.8 µM): 0.333
- relative viability (LU99A; first compound 2.53 µM): 0.31
- relative viability (LU99A; first compound 8 µM): 0.398
- relative viability (NCI-H1395; first compound 0.08 µM): 0.369
- relative viability (NCI-H1395; first compound 0.253 µM): 0.42
- relative viability (NCI-H1395; first compound 0.8 µM): 0.417
- relative viability (NCI-H1395; first compound 2.53 µM): 0.389
- relative viability (NCI-H1395; first compound 8 µM): 0.394
- relative viability (HCC-15; first compound 0.08 µM): 1.36
- relative viability (HCC-15; first compound 0.253 µM): 0.545
- relative viability (HCC-15; first compound 2.53 µM): 1.2
- relative viability (HCC-15; first compound 8 µM): 1.16
- relative viability (NCI-H647; first compound 0.08 µM): 0.46
- relative viability (NCI-H647; first compound 0.253 µM): 0.26
- relative viability (NCI-H647; first compound 0.8 µM): 0.245
- relative viability (NCI-H647; first compound 2.53 µM): 0.409
- relative viability (NCI-H647; first compound 8 µM): 0.532
- relative viability (NCI-H1944; first compound 0.08 µM): 0.659
- relative viability (NCI-H1944; first compound 2.53 µM): 0.443
- relative viability (NCI-H1944; first compound 8 µM): 0.524
- relative viability (CAL-12T; first compound 0.08 µM): 0.64
- relative viability (CAL-12T; first compound 0.253 µM): 0.587
- relative viability (CAL-12T; first compound 0.8 µM): 0.539
- relative viability (CAL-12T; first compound 2.53 µM): 0.511
- relative viability (CAL-12T; first compound 8 µM): 0.587
- relative viability (NCI-H1666; first compound 0.08 µM): 0.803
- relative viability (NCI-H1666; first compound 0.253 µM): 0.831
- relative viability (NCI-H1666; first compound 0.8 µM): 0.76
- relative viability (NCI-H1666; first compound 2.53 µM): 0.747
- relative viability (NCI-H1666; first compound 8 µM): 0.881
- relative viability (LC-2-ad; first compound 0.08 µM): 0.78
- relative viability (LC-2-ad; first compound 0.253 µM): 0.794
- relative viability (LC-2-ad; first compound 0.8 µM): 0.736
- relative viability (LC-2-ad; first compound 2.53 µM): 0.812
- relative viability (LC-2-ad; first compound 8 µM): 0.798
- relative viability (PC-3 [JPC-3]; first compound 0.253 µM): 0.719
- relative viability (PC-3 [JPC-3]; first compound 0.8 µM): 0.72
- relative viability (PC-3 [JPC-3]; first compound 2.53 µM): 0.832
- relative viability (PC-3 [JPC-3]; first compound 8 µM): 0.751
- relative viability (NCI-H1734; first compound 0.08 µM): 0.573
- relative viability (NCI-H1734; first compound 0.253 µM): 0.558
- relative viability (NCI-H1734; first compound 0.8 µM): 0.487
- relative viability (NCI-H1734; first compound 2.53 µM): 0.511
- relative viability (NCI-H1734; first compound 8 µM): 0.485
- relative viability (NCI-H1975; first compound 0.08 µM): 0.691
- relative viability (NCI-H1975; first compound 0.253 µM): 0.635
- relative viability (NCI-H1975; first compound 0.8 µM): 0.684
- relative viability (NCI-H1975; first compound 2.53 µM): 0.649
- relative viability (NCI-H1975; first compound 8 µM): 0.766
- relative viability (H3255; first compound 0.253 µM): 0.858
- relative viability (H3255; first compound 0.8 µM): 0.777
- relative viability (H3255; first compound 2.53 µM): 0.838
- relative viability (H3255; first compound 8 µM): 0.879
- relative viability (PC-14; first compound 0.253 µM): 0.348
- relative viability (PC-14; first compound 0.8 µM): 0.271
- relative viability (PC-14; first compound 2.53 µM): 0.328
- relative viability (PC-14; first compound 8 µM): 0.402
- relative viability (NCI-H1993; first compound 0.08 µM): 0.701
- relative viability (NCI-H1993; first compound 0.253 µM): 0.752
- relative viability (NCI-H1993; first compound 0.8 µM): 0.544
- relative viability (NCI-H1993; first compound 2.53 µM): 0.675
- relative viability (NCI-H1993; first compound 8 µM): 0.729
- relative viability (HCC-366; first compound 0.08 µM): 0.263
- relative viability (HCC-366; first compound 0.253 µM): 0.258
- relative viability (HCC-366; first compound 0.8 µM): 0.211
- relative viability (HCC-366; first compound 2.53 µM): 0.246
- relative viability (HCC-366; first compound 8 µM): 0.253
- relative viability (HARA; first compound 0.08 µM): 0.21
- relative viability (HARA; first compound 0.253 µM): 0.48
- relative viability (HARA; first compound 0.8 µM): 0.318
- relative viability (HARA; first compound 2.53 µM): 0.197
- relative viability (HARA; first compound 8 µM): 0.37
- relative viability (NCI-H838; first compound 0.08 µM): 0.937
- relative viability (NCI-H838; first compound 0.253 µM): 0.946
- relative viability (NCI-H838; first compound 0.8 µM): 0.908
- relative viability (NCI-H838; first compound 2.53 µM): 0.938
- relative viability (NCI-H838; first compound 8 µM): 0.966
- relative viability (NCI-H3122; first compound 0.08 µM): 0.977
- relative viability (NCI-H3122; first compound 0.253 µM): 0.882
- relative viability (NCI-H3122; first compound 0.8 µM): 0.963
- relative viability (NCI-H3122; first compound 2.53 µM): 1.05
- relative viability (NCI-H3122; first compound 8 µM): 0.825
